PubChem BioAssay AID328 (DTP/NCI, 2004)
“And” between values parts separate entries of the source, which are not always exact repeats. Identical values can stand only once. Toxic doses and inconclusive results are not listed.

Tested on: BDF1 mice, P388 leukemia ip, median survival T/C
Experiment: NCI In Vivo Anticancer Drug Screen. Data for tumor model P388 Leukemia (intraperitoneal) in B6D2F1 (BDF1) mice
Conditions: endpoint: median survival time, higher = longer survival
Summary of the method: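 Vehicle-dosed animals serve as the reference; survival of compound-dosed, tumour-implanted mice is divided by it.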

[1] = dose: 100.0 mg/kg/injection, schedule: Q01DX009 (ip), vehicle: saline
[2] = dose: 100.0 mg/kg/injection, schedule: Q04DX003 (ip), vehicle: saline
[3] = dose: 200.0 mg/kg/injection, schedule: Q04DX003 (ip), vehicle: saline
[4] = dose: 400.0 mg/kg/injection, schedule: Q04DX003 (ip), vehicle: saline
[5] = dose: 100.0 mg/kg/injection, schedule: Q04DX003 (ip), vehicle: saline with Tween-80
[6] = dose: 200.0 mg/kg/injection, schedule: Q04DX003 (ip), vehicle: saline with Tween-80
[7] = dose: 400.0 mg/kg/injection, schedule: Q04DX003 (ip), vehicle: saline with Tween-80
[8] = dose: 100.0 mg/kg/injection, schedule: Q01DX009 (ip), vehicle: saline with Tween-80
[9] = dose: 200.0 mg/kg/injection, schedule: Q01DX009 (ip), vehicle: saline with Tween-80
[10] = dose: 400.0 mg/kg/injection, schedule: Q01DX009 (ip), vehicle: saline with Tween-80
[11] = dose: 25.0 mg/kg/injection, schedule: Q04DX003 (ip), vehicle: Klucel (hydroxypropylcellulose) (HPC)
[12] = dose: 50.0 mg/kg/injection, schedule: Q04DX003 (ip), vehicle: Klucel (hydroxypropylcellulose) (HPC)
[13] = dose: 100.0 mg/kg/injection, schedule: Q04DX003 (ip), vehicle: Klucel (hydroxypropylcellulose) (HPC)
[14] = dose: 50.0 mg/kg/injection, schedule: Q01DX009 (ip), vehicle: Klucel (hydroxypropylcellulose) (HPC)

Compound: COc1cc2c(cc1OC)C1c3cc(OC)c(OC)cc3CC(=O)N1CC2 (stereo not given)
- T/C (dose: 0.09 mg/kg/injection, schedule: Q01DX009 (ip), vehicle: saline): 110 % of control
- T/C (dose: 0.39 mg/kg/injection, schedule: Q01DX009 (ip), vehicle: saline): 88 % of control
- T/C (dose: 0.78 mg/kg/injection, schedule: Q01DX009 (ip), vehicle: saline): 98 % of control
- T/C (dose: 1.56 mg/kg/injection, schedule: Q01DX009 (ip), vehicle: saline): 99 % of control
- T/C (dose: 3.12 mg/kg/injection, schedule: Q01DX009 (ip), vehicle: saline): 100 % of control
- T/C (dose: 12.5 mg/kg/injection, schedule: Q01DX009 (ip), vehicle: saline): 108 % of control
- T/C (dose: 50.0 mg/kg/injection, schedule: Q04DX003 (ip), vehicle: saline): 102 % of control
- T/C [1]: 92 % of control
- T/C [2]: 99 % of control
- T/C [3]: 102 % of control
- T/C [4]: 93 % of control

Compound: NS(=O)(=O)c1ccc(NC(=O)/C=C/C(=O)O)cc1
- T/C [5]: 100 % of control
- T/C [6]: 100 % of control
- T/C [7]: 95 % of control

Compound: [NH-]CC[S-].[NH-]CC[S-].[NH-]CC[S-].[NH-]CC[S-].[Ni+2].[Ni+2].[Ni]
- T/C (dose: 2.0 mg/kg/injection, schedule: Q01DX009 (ip), vehicle: saline): 105 % of control
- T/C (dose: 3.12 mg/kg/injection, schedule: Q04DX003 (ip), vehicle: saline): 100 % of control
- T/C (dose: 4.0 mg/kg/injection, schedule: Q01DX009 (ip), vehicle: saline): 100 % of control
- T/C (dose: 8.0 mg/kg/injection, schedule: Q01DX009 (ip), vehicle: saline): 98 % of control
- T/C (dose: 16.0 mg/kg/injection, schedule: Q01DX009 (ip), vehicle: saline): 87 % of control and 117 % of control

Compound: CCSC(C)C
- T/C [2]: 100 % of control
- T/C [3]: 104 % of control
- T/C [4]: 95 % of control

Compound: CCCCCCCSc1ncnc2nc[nH]c12
- T/C [8]: 100 % of control
- T/C [5]: 86 % of control
- T/C [9]: 86 % of control
- T/C [6]: 95 % of control
- T/C [10]: 109 % of control
- T/C [7]: 100 % of control

Compound: CCOC(=O)C(OCC)P(=O)(OCC)OCC (stereo not given)
- T/C [11]: 93 % of control
- T/C [12]: 97 % of control
- T/C [13]: 91 % of control
- T/C (dose: 200.0 mg/kg/injection, schedule: Q04DX003 (ip), vehicle: Klucel (hydroxypropylcellulose) (HPC)): 90 % of control
- T/C (dose: 400.0 mg/kg/injection, schedule: Q04DX003 (ip), vehicle: Klucel (hydroxypropylcellulose) (HPC)): 93 % of control

Compound: CCCCCCCCCC(O)CCCCC (stereo not given)
- T/C (dose: 20.0 mg/kg/injection, schedule: Q01DX009 (ip), vehicle: saline with Tween-80): 100 % of control
- T/C (dose: 25.0 mg/kg/injection, schedule: Q04DX003 (ip), vehicle: saline with Tween-80): 95 % of control
- T/C (dose: 45.0 mg/kg/injection, schedule: Q01DX009 (ip), vehicle: saline with Tween-80): 100 % of control
- T/C (dose: 50.0 mg/kg/injection, schedule: Q04DX003 (ip), vehicle: saline with Tween-80): 108 % of control
- T/C (dose: 90.0 mg/kg/injection, schedule: Q01DX009 (ip), vehicle: saline with Tween-80): 104 % of control
- T/C [8]: 113 % of control
- T/C [1]: 170 % of control
- T/C [5]: 100 % of control
- T/C (dose: 135.0 mg/kg/injection, schedule: Q01DX009 (ip), vehicle: saline with Tween-80): 95 % of control
- T/C [9]: 108 % of control
- T/C [6]: 95 % of control
- T/C [10]: 113 % of control
- T/C [7]: 100 % of control

Compound: CC(Br)(C(Br)c1ccccc1)[N+](=O)[O-] (stereo not given)
- T/C [14]: 123 % of control

Compound: CC1C/C(=C\NC(N)=O)C(=O)O1 (stereo not given)
- T/C (dose: 100.0 mg/kg/injection, schedule: Q04DX003 (ip), vehicle: water): 103 % of control
- T/C (dose: 200.0 mg/kg/injection, schedule: Q04DX003 (ip), vehicle: water): 102 % of control
- T/C (dose: 400.0 mg/kg/injection, schedule: Q04DX003 (ip), vehicle: water): 103 % of control

Compound: COc1cc2cc3cc4cc(OC)c(OC)cc4c(C)[n+]3cc2cc1OC (tested in a mixture with another compound)
- T/C (dose: 10.0 mg/kg/injection, schedule: Q01DX009 (ip), vehicle: Klucel (hydroxypropylcellulose) (HPC)): 163 % of control
- T/C (dose: 20.0 mg/kg/injection, schedule: Q01DX009 (ip), vehicle: Klucel (hydroxypropylcellulose) (HPC)): 155 % of control
- T/C (dose: 20.0 mg/kg/injection, schedule: Q01DX009 (ip), vehicle: saline): 180 % of control
- T/C (dose: 40.0 mg/kg/injection, schedule: Q01DX009 (ip), vehicle: Klucel (hydroxypropylcellulose) (HPC)): 163 % of control
- T/C (dose: 40.0 mg/kg/injection, schedule: Q01DX009 (ip), vehicle: saline): 150 % of control
- T/C (dose: 40.0 mg/kg/injection, schedule: Q04DX003 (ip), vehicle: saline): 154 % of control and 166 % of control
- T/C (dose: 80.0 mg/kg/injection, schedule: Q01DX009 (ip), vehicle: Klucel (hydroxypropylcellulose) (HPC)): 163 % of control
- T/C (dose: 80.0 mg/kg/injection, schedule: Q01DX009 (ip), vehicle: saline): 180 % of control
- T/C (dose: 80.0 mg/kg/injection, schedule: Q04DX003 (ip), vehicle: saline): 157 % of control
- T/C (dose: 120.0 mg/kg/injection, schedule: Q01DX009 (ip), vehicle: saline): 150 % of control
- T/C (dose: 160.0 mg/kg/injection, schedule: Q01DX009 (ip), vehicle: Klucel (hydroxypropylcellulose) (HPC)): 154 % of control
- T/C (dose: 160.0 mg/kg/injection, schedule: Q01DX009 (ip), vehicle: saline): 200 % of control
- T/C (dose: 160.0 mg/kg/injection, schedule: Q04DX003 (ip), vehicle: saline): 154 % of control
- T/C (dose: 168.0 mg/kg/injection, schedule: Q04DX003 (ip), vehicle: saline): 99 % of control
- T/C (dose: 250.0 mg/kg/injection, schedule: Q04DX003 (ip), vehicle: saline): 92 % of control

Compound: COc1cccc(C(=O)C=C(C(F)(F)F)C(F)(F)F)c1
- T/C (dose: 11.0 mg/kg/injection, schedule: Q01DX009 (ip), vehicle: saline with Tween-80): 109 % of control
- T/C (dose: 16.5 mg/kg/injection, schedule: Q01DX009 (ip), vehicle: saline with Tween-80): 109 % of control
- T/C (dose: 25.0 mg/kg/injection, schedule: Q01DX009 (ip), vehicle: saline with Tween-80): 113 % of control

Compound: Cc1cccc(NC(=O)CCc2ccc(N3C(N)=NC(N)=NC3(C)C)cc2)c1
- T/C (dose: 58.0 mg/kg/injection, schedule: Q01DX009 (ip), vehicle: saline with Tween-80): 111 % of control
- T/C (dose: 88.0 mg/kg/injection, schedule: Q01DX009 (ip), vehicle: saline with Tween-80): 119 % of control
- T/C (dose: 132.0 mg/kg/injection, schedule: Q01DX009 (ip), vehicle: saline with Tween-80): 119 % of control and 122 % of control

Compound: CN1C=NNc2ccc(Cl)cc2C1=O
- T/C [5]: 103 % of control
- T/C [6]: 114 % of control
- T/C [7]: 109 % of control

Compound: COc1cccc2c1C(=O)c1c(O)c3c(c(O)c1C2=O)C[C@@](O)(/C(C)=N/NC(=O)c1ccccc1)C[C@@H]3OC1CC(N(C)C)C(O)C(C)O1 (stereo not given in full)
- T/C (dose: 0.78 mg/kg/injection, schedule: Q01DX009 (ip), vehicle: water): 161 % of control
- T/C (dose: 1.56 mg/kg/injection, schedule: Q01DX009 (ip), vehicle: water): 186 % of control
- T/C (dose: 3.13 mg/kg/injection, schedule: Q01DX009 (ip), vehicle: water): 236 % of control
- T/C (dose: 6.25 mg/kg/injection, schedule: Q01DX009 (ip), vehicle: water): 96 % of control

Compound: O=[N+]([O-])O.[Ag]
- T/C (dose: 10.0 mg/kg/injection, schedule: Q01DX009 (ip), vehicle: saline with Tween-80): 96 % of control
- T/C (dose: 40.0 mg/kg/injection, schedule: Q01DX009 (ip), vehicle: saline with Tween-80): 92 % of control
- T/C (dose: 40.0 mg/kg/injection, schedule: Q04DX003 (ip), vehicle: saline with Tween-80): 90 % of control

Compound: O=C1NC(=O)C2(CCCCC2)N1
- T/C (dose: 25.0 mg/kg/injection, schedule: Q01DX009 (ip), vehicle: Klucel (hydroxypropylcellulose) (HPC)): 91 % of control
- T/C [11]: 90 % of control
- T/C [14]: 100 % of control
- T/C [12]: 100 % of control
- T/C [13]: 104 % of control

Compound: NSc1ccc([N+](=O)[O-])cc1
- T/C (dose: 100.0 mg/kg/injection, schedule: Q01DX001 (ip), vehicle: other): 109 % of control

Compound: Cc1ccc(S(=O)(=O)OCCOC(=O)OCCOS(=O)(=O)c2ccc(C)cc2)cc1
- T/C (dose: 50.0 mg/kg/injection, schedule: Q01DX009 (ip), vehicle: saline with Tween-80): 99 % of control
- T/C [8]: 100 % of control
- T/C [9]: 99 % of control
